In patent US6452032B1, “Organosilyl compounds having nuclear hormone receptor modulating activity” (Allergan Sales, LLC, priority 1999, dated 2002) one finds EC50 and Kd data, which are given here for five compounds.

Each structure is given as a SMILES string. Where two headings read alike, the source gives them in different places.

Assay [1] addresses T1, RXRβ (Homo sapiens, UniProt P28702).
T1 construct: encoding the full length receptors RARα, RARβ, RARγ, RXRα, RXRβ, and RXRγ; expressed in transfected cells
T1 sequence (P28702 1-533): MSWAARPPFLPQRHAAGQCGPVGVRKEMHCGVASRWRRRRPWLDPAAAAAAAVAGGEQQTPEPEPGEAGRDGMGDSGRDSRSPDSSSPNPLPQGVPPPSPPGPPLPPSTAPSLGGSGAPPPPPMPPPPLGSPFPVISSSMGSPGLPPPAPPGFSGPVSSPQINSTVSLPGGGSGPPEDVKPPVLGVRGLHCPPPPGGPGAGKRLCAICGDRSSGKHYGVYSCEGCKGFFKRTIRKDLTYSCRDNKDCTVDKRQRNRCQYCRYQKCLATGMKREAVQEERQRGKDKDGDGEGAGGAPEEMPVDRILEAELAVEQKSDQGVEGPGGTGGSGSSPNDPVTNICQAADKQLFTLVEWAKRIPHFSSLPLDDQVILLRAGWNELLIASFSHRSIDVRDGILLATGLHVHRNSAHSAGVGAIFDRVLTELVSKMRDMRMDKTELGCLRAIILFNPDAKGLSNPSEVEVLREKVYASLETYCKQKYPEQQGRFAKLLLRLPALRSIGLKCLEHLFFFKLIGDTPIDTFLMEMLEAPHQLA
Briefly: Transactivation assay, luciferase reporter, full length RXRβ. It counts as cell-based. As to conditions: concentration giving 50% maximal transcription of the reporter gene; read-out: Trans (EC50) RXRβ. As to the method:
(§1) Retinoic acid receptor transactivation activity and binding efficiencies were determined essentially as described in U.S. Pat. Nos.: 5,298,429 and 5,071,773, incorporated by reference herein. Transactivation assays employed expression plasmids encoding the full length receptors RARα, RARβ, RARγ, RXRα, RXRβ, and RXRγ. Reporter plasmids contained the herpes virus thymidine kinase promoter and the appropriate retinoid acid receptor response element (RAREs) or retinoid X receptor response element (RXREs) positioned upstream of an open coding region encoding firefly luciferase.
(§2) These compounds are designated AGN 192192, AGN 192337, AGN 192294, AGN 192295, and AGN 192452, respectively. EC50 designates the concentration of the tested compound which was able to give a 50% maximal transcription of the reporter gene; KD50 indicates the concentration of the tested compound at which 50% of the compound molecules are bound to the receptor. NT indicates those points that were not tested in the particular experiment.

The target in assay [2] is T2, RXRγ (Homo sapiens, UniProt P48443).
T2 construct: encoding the full length receptors RARα, RARβ, RARγ, RXRα, RXRβ, and RXRγ; expressed in transfected cells
T2 sequence (P48443 1-463): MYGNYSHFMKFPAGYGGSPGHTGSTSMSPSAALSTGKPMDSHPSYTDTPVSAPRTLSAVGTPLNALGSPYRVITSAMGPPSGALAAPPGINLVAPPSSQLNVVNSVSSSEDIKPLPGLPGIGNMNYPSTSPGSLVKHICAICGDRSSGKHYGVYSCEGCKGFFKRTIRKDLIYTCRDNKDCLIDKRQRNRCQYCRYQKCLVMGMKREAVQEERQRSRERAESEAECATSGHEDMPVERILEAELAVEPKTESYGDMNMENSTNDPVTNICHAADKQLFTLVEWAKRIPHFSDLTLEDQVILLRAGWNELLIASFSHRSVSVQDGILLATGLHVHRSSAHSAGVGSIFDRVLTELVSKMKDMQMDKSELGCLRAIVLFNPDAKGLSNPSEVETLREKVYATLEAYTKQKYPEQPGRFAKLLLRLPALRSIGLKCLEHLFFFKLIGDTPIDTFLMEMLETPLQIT
Nature of the assay: Transactivation assay, luciferase reporter, full length RXRγ. It counts as cell-based. As to conditions: concentration giving 50% maximal transcription of the reporter gene; read-out: Trans (EC50) RXRγ. As to the method: as §1, §2

The target of assay [3] is T3, RARβ (Homo sapiens, UniProt P10826).
T3 construct: expressed in transfected cells
T3 sequence (P10826 1-455): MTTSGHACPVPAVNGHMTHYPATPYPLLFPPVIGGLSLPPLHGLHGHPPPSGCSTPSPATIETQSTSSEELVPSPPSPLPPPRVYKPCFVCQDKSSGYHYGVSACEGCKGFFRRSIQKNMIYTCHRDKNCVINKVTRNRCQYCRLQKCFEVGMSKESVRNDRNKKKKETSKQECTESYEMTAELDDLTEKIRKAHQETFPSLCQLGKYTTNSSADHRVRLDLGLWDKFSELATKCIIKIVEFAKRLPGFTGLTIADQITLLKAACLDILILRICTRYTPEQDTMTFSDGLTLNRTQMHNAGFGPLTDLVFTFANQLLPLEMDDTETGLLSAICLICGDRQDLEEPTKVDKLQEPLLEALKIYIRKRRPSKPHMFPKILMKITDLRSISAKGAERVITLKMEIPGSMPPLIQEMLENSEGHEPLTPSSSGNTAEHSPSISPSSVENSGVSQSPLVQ
Briefly: Competition binding assay, radiolabeled all-trans-retinoic acid, RARβ. As to the method:
(§3) Binding assays were performed using a classic competition assay format in which cloned receptor RAR mand RXR molecules were first loaded with either radiolabeled all-trans-retinoic acid (RAR) or radiolabeled 9-cis retinoic acid (RXR), and then the amount of radioactivity liberated with increasing concentration of test compound was measured.
as §2

For assay [4], the target named is T3, RARβ. Nature of the assay: Transactivation assay, luciferase reporter, full length RARβ. It counts as cell-based. As to the method: as §1, §2
On the technique in general: In a reporter assay the amount or activity of a reporter protein is the signal.

In assay [5] the target is T1, RXRβ. Briefly: Competition binding assay, radiolabeled 9-cis retinoic acid, RXRβ. Particulars: competition with radiolabeled 9-cis retinoic acid; read-out: Bind (KD50) RXRβ. As to the method: as §3, §2
Assay [6] deals with T2, RXRγ. Nature of the assay: Competition binding assay, radiolabeled 9-cis retinoic acid, RXRγ. Particulars: competition with radiolabeled 9-cis retinoic acid; read-out: Bind (KD50) RXRγ. As to the method:
as §3, §2

For assay [7], the target named is T4, RXRα (Homo sapiens, UniProt P19793).
T4 construct: encoding the full length receptors RARα, RARβ, RARγ, RXRα, RXRβ, and RXRγ; expressed in transfected cells
T4 sequence (P19793 1-462): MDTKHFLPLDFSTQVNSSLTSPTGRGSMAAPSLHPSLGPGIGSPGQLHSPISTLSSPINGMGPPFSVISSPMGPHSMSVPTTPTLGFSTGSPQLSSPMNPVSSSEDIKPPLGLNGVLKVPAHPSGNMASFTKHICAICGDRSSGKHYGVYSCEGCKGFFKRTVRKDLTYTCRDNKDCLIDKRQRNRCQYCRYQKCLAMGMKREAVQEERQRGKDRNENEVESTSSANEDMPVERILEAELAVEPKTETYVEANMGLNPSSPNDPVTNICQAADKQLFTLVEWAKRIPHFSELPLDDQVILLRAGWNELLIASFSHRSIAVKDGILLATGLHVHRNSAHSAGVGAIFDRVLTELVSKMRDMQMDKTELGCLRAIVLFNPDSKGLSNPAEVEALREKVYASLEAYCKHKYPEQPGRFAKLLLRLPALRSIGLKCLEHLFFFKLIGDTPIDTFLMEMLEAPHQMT
Nature of the assay: Transactivation assay, luciferase reporter, full length RXRα. The class given is cell-based. As to conditions: concentration giving 50% maximal transcription of the reporter gene; read-out: Trans (EC50) RXRα. As to the method: as §1, §2

Assay [8] addresses T5, RARα (Homo sapiens, UniProt P10276).
T5 sequence (P10276 1-462): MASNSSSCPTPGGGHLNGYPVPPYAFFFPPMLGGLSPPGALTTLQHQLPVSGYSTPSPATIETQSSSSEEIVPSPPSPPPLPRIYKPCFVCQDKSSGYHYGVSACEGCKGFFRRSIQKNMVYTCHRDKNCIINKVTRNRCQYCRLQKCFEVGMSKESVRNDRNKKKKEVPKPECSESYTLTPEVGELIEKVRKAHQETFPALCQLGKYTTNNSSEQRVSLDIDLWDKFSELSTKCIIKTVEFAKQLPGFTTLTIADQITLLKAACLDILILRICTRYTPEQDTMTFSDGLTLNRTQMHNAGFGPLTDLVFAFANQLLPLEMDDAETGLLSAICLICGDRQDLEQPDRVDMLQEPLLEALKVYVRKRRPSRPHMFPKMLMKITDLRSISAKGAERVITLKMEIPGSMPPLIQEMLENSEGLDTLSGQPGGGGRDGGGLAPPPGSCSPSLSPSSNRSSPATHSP
Briefly: Transactivation assay, luciferase reporter, full length RARα. As to conditions: concentration giving 50% maximal transcription of the reporter gene; read-out: Trans (EC50) RARα. The class given is cell-based. As to the method:
as §1, §2

For assay [9], the target named is T6, RARγ (Homo sapiens, UniProt P13631).
T6 sequence (P13631 1-454): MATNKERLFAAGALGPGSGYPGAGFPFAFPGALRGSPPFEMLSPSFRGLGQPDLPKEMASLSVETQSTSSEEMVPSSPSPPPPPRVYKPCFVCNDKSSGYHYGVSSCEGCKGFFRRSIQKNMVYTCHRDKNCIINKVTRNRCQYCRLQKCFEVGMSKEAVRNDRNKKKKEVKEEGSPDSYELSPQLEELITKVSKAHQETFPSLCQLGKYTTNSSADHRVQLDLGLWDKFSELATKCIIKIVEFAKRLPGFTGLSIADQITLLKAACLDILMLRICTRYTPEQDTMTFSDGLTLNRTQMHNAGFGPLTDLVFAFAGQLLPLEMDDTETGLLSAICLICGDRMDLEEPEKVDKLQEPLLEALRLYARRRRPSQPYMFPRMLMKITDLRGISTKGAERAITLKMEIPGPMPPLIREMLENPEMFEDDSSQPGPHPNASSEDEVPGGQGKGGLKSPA
Briefly: Competition binding assay, radiolabeled all-trans-retinoic acid, RARγ. As to the method:
as §3, §2

For assay [10], the target named is T4, RXRα. Nature of the assay: Competition binding assay, radiolabeled 9-cis retinoic acid, RXRα. Particulars: competition with radiolabeled 9-cis retinoic acid; read-out: Bind (KD50) RXRα. As to the method:
as §3, §2

In assay [11] the target is T5, RARα. Briefly: Competition binding assay, radiolabeled all-trans-retinoic acid, RARα. As to the method:
as §3, §2

Assay [12] has as its target T6, RARγ. Nature of the assay: Transactivation assay, luciferase reporter, full length RARγ. The class given is cell-based. As to the method:
as §1, §2

[13] abbreviates: competition with radiolabeled all-trans-retinoic acid, read-out: Bind (KD50) RARβ.
Where [14] appears, read: concentration giving 50% maximal transcription of the reporter gene, read-out: Trans (EC50) RARβ.
Setting [15] is: competition with radiolabeled all-trans-retinoic acid, read-out: Bind (KD50) RARγ.
[16] abbreviates: competition with radiolabeled all-trans-retinoic acid, read-out: Bind (KD50) RARα.

As usually defined, the EC50 is the concentration at which the effect is half-maximal. `Cc1cc2c(cc1/C(=C/c1ccc(C(=O)C(=O)O)cc1)[Si](C)(C)C)C(C)(C)CCC2(C)C` [Compound 192192]: the EC50 at RXRβ [1] was found to be 780 nM; on RXRγ [2], 960 nM; at RARβ [4] (setting [14]), 88 nM; at RXRα [7], 990 nM; at RARα [8], 550 nM. For the same compound, the Kd is 699 nM on RARβ [3] (setting [13]); > 1000 nM at RXRβ [5]; > 1000 nM on RXRγ [6]; 2020 nM on RARγ [9] (setting [15]); > 1000 nM on RXRα [10]; 2640 nM at RARα [11] (setting [16]).

On to `Cc1cc2c(cc1/C(=C/c1ccc(C(=O)O)s1)[Si](C)(C)C)C(C)(C)CCC2(C)C` [Compound 192294], for which the Kd on RARβ [3] (setting [13]) was 8000 nM; on RARγ [9] (setting [15]) it was 8940 nM.

For the compound `CC1(C)CCC(C)(C)c2cc(/C(=C/c3ccc(C(=O)O)s3)[Si](C)(C)C)ccc21` [Compound 192295], the EC50 was 330 nM on RARγ [12] (concentration giving 50% maximal transcription of the reporter gene, read-out: Trans (EC50) RARγ); 290 nM on RARβ [4] (setting [14]); 350 nM on RARα [8]. In addition, the Kd on RARβ [3] (setting [13]) was 499 nM; at RARγ [9] (setting [15]), 1550 nM; at RARα [11] (setting [16]), 1300 nM.

Regarding `CC1(C)CCC(C)(C)c2cc(/C(=C/c3ccc(C(=O)C(=O)O)cc3)[Si](C)(C)C)ccc21` [Compound 192337], the results for the EC50 at RARγ [12] and on RARβ [4] were 1500 nM and 260 nM, respectively. Also, the Kd at RARβ [3] is 2430 nM; on RARγ [9], 5840 nM; at RARα [11], 2280 nM.

`CC1(C)CC(C)(C)c2cc(/C(=C/c3ccc(C(=O)C(=O)O)cc3)[Si](C)(C)C)ccc2O1` [Compound 192452]: the EC50 came to 2900 nM at RXRγ [2] and 3100 nM on RXRα [7]. The Kd on RARβ [3] (setting [13]) turned out to be 3300 nM; on RARγ [9] (setting [15]) it was 4520 nM.
